Laboratory results from patent US7514438B2, “Melanin concentrating hormone receptor antagonist” (Amgen, Inc., priority 2003, dated 2009).
Read-outs that look alike come from different tables or passages of the source.

How the values were obtained:
rat MCH1 receptor = rat MCH1 receptor (Rattus norvegicus, UniProt P97639); assay: rMCH FLIPR calcium mobilization assay (CHOK1-Gqi cells); type: cell-based; design: expressed in transfected cells; host or cells: CHOK1-Gqi
Description: Pharmacological analyses were conducted using either a HT-PS100 device (Axiom Biotechnologies, San Diego, Calif.), which provides high-resolution dose-response fluorometric measurements of [Ca^++]i mobilization, or using a FLIPR® device (Molecular Devices, Sunnyvale, Calif.).
Materials: Pharmacological analysis was conducted using a FLIPR® device (Molecular Devices, Sunnyvale, Calif.). CHOK1-Gqi cells were stably transfected with the rat MCH1 receptor and maintained under G418 antibiotic pressure. FLIPR® assay buffer consisted of phenol red-free DMEM+2.5 mM probenecid. […]. Test compounds were prepared as 10 mM stocks in 100% DMSO and diluted to a top end working concentration of 10 μM in 96 well black, flat bottom, collagen-I coated plates (Becton Dickinson, Bedford, Mass.).
Methods: CHOK1-Gqi cells stably expressing MCH1R were maintained in Dulbeco's modified Eagle's medium (GIBCO/Life Technologies, Rockville, Md.) supplemented with 2 mM glutamine and 10% dialyzed fetal bovine serum (HyCLone, Logan, Utah) at 37° C., 5% CO2. Cells were harvested by 10′ treatment with Versene (GIBCO/Life Technologies) followed by trituration, washing twice with cold (4° C.) hybridoma medium (Serum/Protein free, with L-glutamine, sodium bicarbonate, MOPS buffer) (Sigma-Aldrich Corp, St. Louis, Mo.) and replated onto 96 well black, flat bottom, collagen-I coated plates to a density of 10,000 cells/well. The cells were then loaded with the fluorescent calcium indicator Fura-2 (Molecular Probes, Eugene, Oreg.) at 1.6 μM for 60′ at room temperature. The loaded cells were then washed twice with 90 μl/well of wash buffer (1×HBSS, 20 mM HEPES, 2.5 mM probenecid).
Receptor-stimulated intracellular calcium responses were detected using FLIPR® by monitoring increases in the Fura-2 fluorescence response.
Test compounds were screened for MCH1R activity in the FLIPR® for both agonist and antagonist action. Agonist mode challenges were conducted at a maximum gradient concentration of 1 μM. Antagonist activity was tested by 10 min pre-incubation of cells at a compound concentration of defined to be 300× the EC50 of MCH (typically 1 μM), with subsequent introduction of MCH at a concentration 5-fold of EC50 as determined in preliminary experiments. […].
Several fixed concentrations of antagonist compounds were prepared in 10-fold increments, and presented to the cells in a gradient of increasing MCH concentration. Values for compound pA2 were calculated by linear regression of MCH EC50s as a function of antagonist concentration.

[1] = molecular target: T1, human MCH 1 receptor (hMCH1R) (Homo sapiens, UniProt Q99705); assay: 125I-MCH ligand binding assay, hMCH
T1 construct: expressed in transfected cells; host or cells: HEK 293 (membranes)
Description: (§1) Human embryonic kidney cells (293 total) expressing either human, rat, or mouse MCH receptor were harvested from 150 mm culture dishes using PBS. Spinning at 1500 rpm for 2 minutes initially pelleted cells. The resulting pellet was then homogenized in 15 mL ice cold sucrose buffer (25 mM HEPES, 0.3 M sucrose, pH 7.4) with a motorized, glass fitted, Teflon® homogenizer. The homogenate was centrifuged at 48,000×g at 4° C. for 10 minutes, resuspended in 15 mL assay buffer (25 mM HEPES, 10 mM mgCl2, 0.2% BSA, 0.1 mg/mL STI, 0.1 mg/mL Pefabloc®, 1 μM Phosphoramidon, pH 7.4) with a Tissue-Tearor® (Biospec Products) and centrifuged again at 48,000×g for 10 minutes. The pellet was homogenized for a third time in 15 mL assay buffer using the Tissue-Tearor® and again centrifuged at 48,000×g for 10 minutes. The resulting pellet was resuspended in assay buffer at a wet weight concentration of 10-20 mg/mL.
(§2) Binding assays were determined as described below using mouse, rat or human MCH 1 receptors (mMCH1R, rMCH1R, and hMCH1R, respectively) expressed in HEK 293; IC50 values were calculated.
(§3) Binding assays were performed in 96-well U-bottom plates. Membranes (100 μg tissue) were incubated at 30° C. for 90 minutes in assay buffer with various peptides in the presence of 0.2 nM ^125I native-MCH (Perkin-Elmer Life Sciences, Boston, Mass.) in 100 μL total volume. Non-specific binding was assessed in the presence of 1 μM cold native-MCH. The reaction was terminated by rapid filtration through Unfilter-96 GF/C glass fiber filter plates (FilterMate® 196 Harvester, Packard Instrument Co., Meriden, Conn.) pre-soaked in PBS/0.5% BSA, followed by three washes with 300 μL ice-cold water. Bound radioactivity was determined using a TopCount® microplate scintillation and luminescence counter (Packard Instrument Co., Meriden, Conn.). Nonlinear regression analyses of drug concentration curves were performed using GraphPad Prism® (GraphPad Software, Inc., San Diego, Calif.).

[2] = molecular target: T2, rat MCH 1 receptor (rMCH1R) (Rattus norvegicus, UniProt P97639); assay: 125I-MCH ligand binding assay, rMCH
T2 construct: expressed in transfected cells; host or cells: HEK 293 (membranes)
Description: as §1, §2, §3

human MCH receptor = molecular target: T3, human MCH receptor (Homo sapiens, UniProt Q99705); assay: hMCH FLIPR calcium mobilization assay; type: cell-based; conditions: 100 μM or less list; read-out: Ki in the hMCH FLIPR assay
T3 construct: expressed in transfected cells

[3] = CHOK1-Gqi cells, rat MCH1 receptor, 100 μM or less list, read-out: Ki in the rMCH FLIPR assay
[4] = HEK 293 membranes, 0.2 nM 125I native-MCH, 100 μM or less list, read-out: IC50 in the hMCH binding assay
[5] = HEK 293 membranes, 0.2 nM 125I native-MCH, 100 μM or less list, read-out: IC50 in the rMCH binding assay
[6] = HEK 293 membranes, 0.2 nM 125I native-MCH, 100 nM or less list, read-out: IC50 in the hMCH binding assay
[7] = HEK 293 membranes, 0.2 nM 125I native-MCH, 100 nM or less list, read-out: IC50 in the rMCH binding assay

Chain of rat MCH1 receptor (P97639 whole entry): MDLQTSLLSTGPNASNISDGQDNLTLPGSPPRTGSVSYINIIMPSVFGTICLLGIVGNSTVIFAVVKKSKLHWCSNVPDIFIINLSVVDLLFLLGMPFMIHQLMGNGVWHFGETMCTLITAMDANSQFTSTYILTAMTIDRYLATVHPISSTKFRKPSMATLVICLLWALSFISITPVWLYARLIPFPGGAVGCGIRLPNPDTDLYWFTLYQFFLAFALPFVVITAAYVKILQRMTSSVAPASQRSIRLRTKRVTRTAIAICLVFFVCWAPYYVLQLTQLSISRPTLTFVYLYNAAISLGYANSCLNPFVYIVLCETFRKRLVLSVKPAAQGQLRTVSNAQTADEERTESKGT
T2 sequence (P97639 whole entry): as above
T3 sequence (Q99705 whole entry): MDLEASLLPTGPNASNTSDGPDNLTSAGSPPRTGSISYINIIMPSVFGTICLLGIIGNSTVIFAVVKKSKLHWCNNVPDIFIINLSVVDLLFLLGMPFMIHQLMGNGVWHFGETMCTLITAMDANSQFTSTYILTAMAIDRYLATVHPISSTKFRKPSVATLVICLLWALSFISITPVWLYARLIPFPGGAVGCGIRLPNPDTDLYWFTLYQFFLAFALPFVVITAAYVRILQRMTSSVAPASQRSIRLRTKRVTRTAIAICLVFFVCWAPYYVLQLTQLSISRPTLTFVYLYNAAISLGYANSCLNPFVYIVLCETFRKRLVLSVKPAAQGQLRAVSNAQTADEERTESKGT
T1 sequence (Q99705 whole entry): as above

SMILES | Ki (rat MCH1 receptor; [3]) [µM] | IC50 [1, 4] [µM] | IC50 [2, 5] [µM] | Ki (human MCH receptor) [µM] | other results
Cc1cccc(C)c1-n1nnnc1[C@H](c1cccc(Oc2ccccc2)c1)N1CCN(C/C=C/c2ccccc2)CC1 (racemic) [Compound 12, 1-[[1-(2,6-dimethyiphenyl)-1H-tetrazol-5-yl]-(3-phenoxyphenyl)methyl]-4-(3-phenylallyl)piperazine] | ≤ 100 | ≤ 100 | ≤ 100 | – | –
C(=C\c1ccccc1)/CN1CCN([C@@H](c2ccccc2)c2nnnn2-c2ccc3[nH]ccc3c2)CC1 (racemic) [Compound 20] | ≤ 100 | ≤ 100 | ≤ 100 | ≤ 100 | IC50 [1, 6]: ≤ 0.1 µM
Cc1cccc(C)c1-n1nnnc1[C@H](c1ccccc1C#N)N1CCN(C/C=C/c2ccccc2)CC1 (racemic) [Compound 80, 2-{[1-(2,6-dimethylphenyl)-1H-tetrazol-5-yl]-[4-(3-phenylallyl)piperazin-1-yl]methyl}benzonitrile] | – | ≤ 100 | ≤ 100 | – | –
Cc1cccc(C)c1-n1nnnc1[C@H](c1cccc2c1OCO2)N1CCN(C/C=C/c2ccccc2)CC1 (racemic) [Compound 81, 1-{benzo[1,3]diaxol-4-yl-[1-(2,6-dimethylphenyl)-1H-tetrazol-5-yl]methyl}-4-(3-phenylallyl)piperazine] | – | ≤ 100 | ≤ 100 | – | –
Cc1cccc(C)c1-n1nnnc1[C@H](c1ccncc1)N1CCN(C/C=C/c2ccccc2)CC1 (racemic) [Compound 86, 1-{[1-(2,6-dimethylphenyl)-1H-tetrazol-5-yl]pyridin-4-ylmethyl}-4-(3-phenylallyl)piperazine] | ≤ 100 | ≤ 100 | – | ≤ 100 | –
Cc1cccc(C)c1-n1nnnc1[C@H](c1cccc(Oc2cc(Cl)cc(Cl)c2)c1)N1CCN(C/C=C/c2ccccc2)CC1 (racemic) [Compound 87, 1-{[3-(3,5-dichloro-phenoxy)-phenyl]-[1-(2,6-dimethylphenyl)-1H-tetrazol-5-yl]methyl}-4-(3-phenylallyl)piperazine] | ≤ 100 | ≤ 100 | – | ≤ 100 | –
Cc1cccc(C)c1-n1nnnc1[C@H](c1cccc(-c2ccccc2)c1)N1CCN(C/C=C/c2ccccc2)CC1 (racemic) [Compound 143, 1-{biphenyl-3-yl-[1-(2,6-dimethylphenyl)-1H-tetrazol-5-yl]methyl}-4-(3-phenylallyl)piperazine] | ≤ 100 | ≤ 100 | ≤ 100 | ≤ 100 | –
Cc1cccc(C)c1-n1nnnc1[C@H](c1cccc(C(F)(F)F)c1)N1CCN(CC=C(c2ccccc2)c2ccccc2)CC1 (racemic) [Compound 144, 1-[[1-(2,6-dimethylphenyl)-1H-tetrazol-5-yl]-(3-trifluoromethylphenyl)methyl]-4-(3,3-diphenylallyl)piperazine] | ≤ 100 | ≤ 100 | ≤ 100 | ≤ 100 | IC50 [1, 6]: ≤ 0.1 µM; IC50 [2, 7]: ≤ 0.1 µM
FC(F)(F)c1cccc([C@@H](c2nnnn2-c2c(Cl)cccc2Cl)N2CCN(C/C=C/c3ccccc3)CC2)c1 (racemic) [Compound 164, 1-[[1-(2,6-dichlorophenyl)-1H-tetrazol-5-yl]-(3-trifluoromethylphenyl)methyl]-4-(3-phenylallyl)piperazine] | – | ≤ 100 | ≤ 100 | – | –
COC(=O)C(Cc1ccccc1)n1nnnc1[C@H](c1ccccc1)N1CCN(C/C=C/c2ccccc2)CC1 (stereo in doubt) [Compound 26, 3-phenyl-2-(5-{phenyl-[4-(3-phenylallyl)piperazin-1-yl]methyl}tetrazol-1-yl)propionic acid methyl ester] | – | ≤ 100 | ≤ 100 | – | –
COC(=O)C(Cc1c[nH]c2ccccc12)n1nnnc1[C@H](c1ccccc1)N1CCN(C/C=C/c2ccccc2)CC1 (stereo in doubt) [Compound 31, 3-(1H-indol-3-yl)-2-(5-{phenyl-[4-(3-phenylallyl)piperazin-1-yl]methyl}tetrazol-1-yl)propionic acid methyl ester] | – | ≤ 100 | ≤ 100 | – | –
C(=C\c1ccccc1)/CN1CCN([C@@H](c2ccccc2)c2nnnn2CC2CCCO2)CC1 (stereo in doubt) [Compound 33, 1-(3-phenylallyl)-4-{phenyl-[1-(tetrahydrofuran-2-ylmethyl)-1H-tetrazol-5-yl]methyl}piperazine] | – | ≤ 100 | ≤ 100 | – | –
CN1CCCC1CCn1nnnc1[C@H](c1ccccc1)N1CCN(C/C=C/c2ccccc2)CC1 (stereo in doubt) [Compound 37, 1-({1-[2-(1-methyl-pyrrolidin-2-yl)ethyl]-1H-tetrazol-5-yl}phenylmethyl)-4-(3-phenylallyl)piperazine] | – | ≤ 100 | ≤ 100 | – | –
Cc1cccc(C)c1-n1nnnc1[C@H](c1cccc(C(F)(F)F)c1)N1CCN(C/C=C/c2ccccc2)CC1 (stereo in doubt) [Compound 142, 1-[[1-(2,6-dimethylphenyl)-1H-tetrazol-5-yl]-(3-trifluoromethylphenyl)methyl]-4-(3-phenylallyl)piperazine] | – | ≤ 100 | ≤ 100 | – | IC50 [1, 6]: ≤ 0.1 µM; IC50 [2, 7]: ≤ 0.1 µM
Cc1cccc(C)c1-n1nnnc1C(c1ccc(-c2ccccc2)cc1)N1CCN(C/C=C/c2ccccc2)CC1 (centres unmarked) [Compound 11, 1-{biphenyl-4-yl-[1-(2,6-dimethyiphenyl)-1H-tetrazol-5-yl]methyl}-4-(3-phenylallyl)piperazine] | ≤ 100 | ≤ 100 | ≤ 100 | – | Ki (rat MCH1 receptor; CHOK1-Gqi cells, rat MCH1 receptor, 100 nM or less list, read-out: Ki in the rMCH FLIPR assay): ≤ 0.1 µM; IC50 [2, 7]: ≤ 0.1 µM
Cc1cccc(C)c1-n1nnnc1C1(N2CCN(C/C=C/c3ccccc3)CC2)CCCCC1 [Compound 92, 1-{1-[1-(2,6-dimethylphenyl)-1H-tetrazol-5-yl]cyclohexyl)-4-(3-phenylallyl)piperazine] | – | – | – | – | Ki (rat MCH1 receptor): ≤ 100 µM; IC50 [1]: ≤ 100 µM; IC50 [2]: ≤ 100 µM
